Data set [1] has as its system CYP2D1. Nature of the data set: hepatic mRNA expression (qPCR) in OVX rats after 5-week oral administration. As to conditions: OVX rat liver; E2 0.5 mg/kg/day oral, 5 weeks; vs vehicle control. It is filed as in vivo. How it is done: (§1) Rats were bilaterally ovariectomized under 1.5–3% isoflurane anesthesia as described previously. […] Administration via forced gastric gavage was performed to ensure the exact amount of test compounds be dosed to each animal. […] Animals were weighed daily and dosage was changed weekly according to weight gain. Animals were euthanized by carbon dioxide inhalation to minimize aversion or distress. Liver microsomal fractions were prepared from livers of OVX rats using differential centrifugation as described previously.
(§2) The total RNA was isolated from homogenized rat liver tissue using a Nucleospin RNA/Protein kit (Macherey-Nagel, Düren, Germany) according to the manufacturer’s manual. The cDNA was synthesized from the total RNA (2 μg) using oligo (dT) and M-MLV reverse transcriptase (Promega, Madison, WI, USA). A qPCR analysis was performed to determine the mRNA levels of both hepatic CYP and UGT isozymes on an ABI Prism 7500 Sequence Detection System (Applied Biosystems, Foster City, CA, USA) using SYBR Green PCR Master Mix (Toyobo, Osaka, Japan) and a gene-specific primer set (Table S1 for primer sequences).

Data set [2] deals with UGT2B1. The data set is described as above. In kind it is in vivo. As to conditions: OVX rat liver; E2 0.5 mg/kg/day and both doses of OFIE (250, 500 mg/kg/day) oral, 5 weeks; range over the groups. How it is done: as §1, §2
The test system of data set [3] is CYP3A1. Described as above. It is filed as in vivo. As to conditions: OVX rat liver; E2 0.5 mg/kg/day oral, 5 weeks; vs vehicle control.
Method: (§6) After 14 days of endogenous hormonal decline, rats were randomly divided into several groups (n = 6 per group) and subjected to oral administration of olive oil (control), E2 (0.5 mg/kg/day, positive control) or OFIE (250 and 500 mg/kg/day) via gastric gavage for 5 weeks. […] Administration via forced gastric gavage was performed to ensure the exact amount of test compounds be dosed to each animal. […] Animals were weighed daily and dosage was changed weekly according to weight gain.
(§7) The total RNA was isolated from homogenized rat liver tissue using a Nucleospin RNA/Protein kit (Macherey-Nagel, Düren, Germany) according to the manufacturer’s manual. The cDNA was synthesized from the total RNA (2 μg) using oligo (dT) and M-MLV reverse transcriptase (Promega, Madison, WI, USA). A qPCR analysis was performed to determine the mRNA levels of both hepatic CYP and UGT isozymes on an ABI Prism 7500 Sequence Detection System (Applied Biosystems, Foster City, CA, USA) using SYBR Green PCR Master Mix (Toyobo, Osaka, Japan) and a gene-specific primer set (Table S1 for primer sequences). The ABI 7500 Software (v2.0.6, Foster City, CA, USA) was used for the estimation of CT. The 2^−ΔΔCt method was applied for relative quantification. […] The results were expressed as fold change when the gene expression level in the vehicle control-treated sample was set as 1.
The target of data set [4] is T1, human pregnane X receptor (hPXR) (Homo sapiens, UniProt O75469).
T1 construct: expressed in transfected cells; host or cells: HepG2
T1 sequence (O75469 1-434): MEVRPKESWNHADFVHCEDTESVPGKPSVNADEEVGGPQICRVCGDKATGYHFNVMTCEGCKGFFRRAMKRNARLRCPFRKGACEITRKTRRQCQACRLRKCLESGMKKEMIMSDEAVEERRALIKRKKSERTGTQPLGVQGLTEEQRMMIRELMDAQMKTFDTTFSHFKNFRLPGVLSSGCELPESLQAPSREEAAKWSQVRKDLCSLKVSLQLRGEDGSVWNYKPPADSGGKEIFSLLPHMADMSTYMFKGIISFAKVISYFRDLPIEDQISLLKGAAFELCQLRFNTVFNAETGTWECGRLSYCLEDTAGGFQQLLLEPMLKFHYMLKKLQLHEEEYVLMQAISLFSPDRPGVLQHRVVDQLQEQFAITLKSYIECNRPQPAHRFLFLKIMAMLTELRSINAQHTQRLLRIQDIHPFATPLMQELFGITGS
Nature of the data set: PXR-mediated CYP3A4 promoter luciferase reporter assay in HepG2 cells. The settings on record: 24 h, vs DMSO; for induction in the PXR promoter activity: individual flavonoids 10 μM. In kind it is cell-based. The procedure: The human hepatocarcinoma cell line HepG2 was purchased from the […] (Manassas, VA, USA) and maintained in Dulbecco’s modified Eagle’s essential medium (DMEM) containing 10% fetal bovine serum, 1% nonessential amino acids, 1% GlutaMAX, and 1% antibiotics/antimycotics in a 5% CO2 atmosphere at 37 °C.
The expression plasmid for human constitutive androstane receptor (hCAR; pcDNA3-CAR) and pGL3-CYP2B6 luciferase construct were kindly provided by Dr. Hongbing Wang (University of Maryland, College Park, MD, USA). The plasmid for human pregnane X receptor (hPXR; pcDNA3-PXR) and pGL3-CYP3A4 luciferase construct were generous gifts from Masahiko Negishi (National Institutes of Health, Bethesda, MD, USA). HepG2 cells were seeded at a density of 1.5 × 10^5 cells/well into a 24-well plate. On the next day, the cells were transfected with 0.25 μg of either pcDNA3-CAR or pcDNA3-PXR and 0.25 μg of promoter luciferase plasmid (i.e., either pGL3-CYP2B6 or pGL3-CYP3A4) using Lipofectamine 2000 (Invitrogen, Carlsbad, CA, USA) according to the manufacturer’s instructions. To normalize the transfection efficiency, the pRL-TK plasmid (0.25 μg/well; Promega), which contains cDNA encoding Renilla luciferase, was cotransfected. The transfected cells were grown for 24 h, treated with various test materials, and incubated for an additional 24 h. The luciferase activities in the cell lysates were measured using the dual luciferase assay system (Promega) with a SpectraMax i3x (Molecular Devices, San Jose, CA, USA). Data are reported as a relative luciferase activity, which is the firefly luciferase reading divided by the Renilla luciferase reading.

The subject of data set [5] is UGT isoforms. As to the kind of experiment: ex vivo activity assay in liver microsomes of orally treated OVX rats. More on the design: species or system rat. The settings on record: E2 0.5 mg/kg/day oral, 5 weeks. How it is done:
(§3) Rats were bilaterally ovariectomized under 1.5-3% isoflurane anesthesia as described previously. […] Administration via forced gastric gavage was performed to ensure the exact amount of test compounds be dosed to each animal. […] Animals were weighed daily and dosage was changed weekly according to weight gain. Animals were euthanized by carbon dioxide inhalation to minimize aversion or distress. Liver microsomal fractions were prepared from livers of OVX rats using differential centrifugation as described previously. […] The HPLC system (Agilent, Santa Clara, CA, USA) consisted of an Agilent 1200 binary pump, DAD, and Agilent 1260 autosampler. A Kinetex C18 reverse-phase column (5 μm, 4.6 × 150 mm) (Phenomenex, Torrance, CA, USA) protected by a KrudKatcher Ultra HPLC in-line filter (Phenomenex) was used for separation. HPLC conditions to determine the isozyme-specific metabolites and major constituents in OFIE are described in the Supplementary Materials. LC-electrospray (ESI)-tandem mass spectrometry (MS^2) analysis was employed to detect glucuronide products. An Linear Trap Quadropole (LTQ) linear ion trap mass spectrometer (Thermo Scientific, Waltham, MA, USA) with an ESI source was coupled with an Agilent 1200 HPLC system.

Data set [6] concerns CYP2B1. Described as above. Also noted: species or system rat. As to conditions: E2 0.5 mg/kg/day oral, 5 weeks, control group set as 1. How it is done:
as §3

The target of data set [7] is T2, human constitutive androstane receptor (hCAR) (Homo sapiens, UniProt Q14994).
T2 construct: expressed in transfected cells; host or cells: HepG2
T2 sequence (Q14994 1-352): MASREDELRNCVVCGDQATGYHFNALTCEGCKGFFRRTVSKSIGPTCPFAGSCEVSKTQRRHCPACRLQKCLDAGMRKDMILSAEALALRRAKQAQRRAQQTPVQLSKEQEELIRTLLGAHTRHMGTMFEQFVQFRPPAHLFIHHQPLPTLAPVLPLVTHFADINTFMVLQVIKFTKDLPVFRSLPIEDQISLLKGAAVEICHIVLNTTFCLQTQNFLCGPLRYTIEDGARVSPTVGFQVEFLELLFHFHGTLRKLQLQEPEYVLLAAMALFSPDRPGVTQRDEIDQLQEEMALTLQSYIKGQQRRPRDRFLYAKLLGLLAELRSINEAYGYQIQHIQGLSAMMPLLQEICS
Nature of the data set: CAR-mediated CYP2B6 promoter luciferase reporter assay in HepG2 cells. As to conditions: E2, concentration not given, 24 h, vs DMSO. It is filed as cell-based.

Data set [8] deals with CYP2B1. As to the kind of experiment: hepatic mRNA expression (qPCR) in OVX rats after 5-week oral administration. It is filed as in vivo. The settings on record: OVX rat liver; E2 0.5 mg/kg/day oral, 5 weeks; vs vehicle control.
Method: as §6, §7
Data set [9] relates to CYP2C11. As to the kind of experiment: CYP inhibition assay in OVX rat liver microsomes. In kind it is in vitro ADME. The settings on record: for inhibition at 60 min, 10 μM: female, liver microsomes from ovariectomized (OVX) rats, pH 7.4, individual constituents 10 μM. The procedure: (§4) CYP-mediated metabolite formation from a substrate (200 μM each) or the formation of glucuronide conjugates from the UGT isozyme-specific substrate (200 μM each) was monitored to determine the isozyme activity. Typical incubation was performed with rat (1 mg/mL) or human (0.5 mg/mL) liver microsomes in the presence of an appropriate cofactor in a buffer system (pH 7.4) at 37 °C for 60 min as described previously.
(§5) The HPLC system (Agilent, Santa Clara, CA, USA) consisted of an Agilent 1200 binary pump, DAD, and Agilent 1260 autosampler. A Kinetex C18 reverse-phase column (5 μm, 4.6 × 150 mm) (Phenomenex, Torrance, CA, USA) protected by a KrudKatcher Ultra HPLC in-line filter (Phenomenex) was used for separation. HPLC conditions to determine the isozyme-specific metabolites and major constituents in OFIE are described in the Supplementary Materials. LC-electrospray (ESI)-tandem mass spectrometry (MS^2) analysis was employed to detect glucuronide products. An Linear Trap Quadropole (LTQ) linear ion trap mass spectrometer (Thermo Scientific, Waltham, MA, USA) with an ESI source was coupled with an Agilent 1200 HPLC system.

In data set [10] the target is T3, CYP1A2 (Homo sapiens, UniProt P05177).
T3 construct: tissue Corning 452117; host or cells: pooled human liver microsomes (150 donors)
T3 sequence (P05177 1-516): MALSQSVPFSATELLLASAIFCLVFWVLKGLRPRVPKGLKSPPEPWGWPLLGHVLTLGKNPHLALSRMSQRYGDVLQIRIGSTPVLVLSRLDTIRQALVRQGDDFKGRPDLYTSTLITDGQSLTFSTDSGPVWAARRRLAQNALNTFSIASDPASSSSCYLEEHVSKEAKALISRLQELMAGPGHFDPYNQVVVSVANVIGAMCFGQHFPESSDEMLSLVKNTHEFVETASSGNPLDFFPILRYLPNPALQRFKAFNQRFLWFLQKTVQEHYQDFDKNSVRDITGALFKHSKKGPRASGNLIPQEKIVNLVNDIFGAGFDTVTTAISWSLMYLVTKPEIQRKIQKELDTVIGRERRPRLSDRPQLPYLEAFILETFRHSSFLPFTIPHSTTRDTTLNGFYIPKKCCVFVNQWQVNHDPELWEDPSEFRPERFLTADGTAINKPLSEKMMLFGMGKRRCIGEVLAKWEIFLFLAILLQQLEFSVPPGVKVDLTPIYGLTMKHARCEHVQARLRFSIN
As to the kind of experiment: CYP inhibition assay in human liver microsomes. The settings on record: pooled human liver microsomes, individual constituents 10 μM; for inhibition at 60 min, 10 μM: pH 7.4. In kind it is in vitro ADME. How it is done: as §4
The HPLC system (Agilent, Santa Clara, CA, USA) consisted of an Agilent 1200 binary pump, DAD, and Agilent 1260 autosampler. A Kinetex C18 reverse-phase column (5 μm, 4.6 × 150 mm) (Phenomenex, Torrance, CA, USA) protected by a KrudKatcher Ultra HPLC in-line filter (Phenomenex) was used for separation. […] LC-electrospray (ESI)-tandem mass spectrometry (MS^2) analysis was employed to detect glucuronide products. An Linear Trap Quadropole (LTQ) linear ion trap mass spectrometer (Thermo Scientific, Waltham, MA, USA) with an ESI source was coupled with an Agilent 1200 HPLC system.

Data set [11] deals with CYP3A1. As to the kind of experiment: CYP inhibition assay in OVX rat liver microsomes. It is filed as in vitro ADME. As to conditions: female, liver microsomes from ovariectomized (OVX) rats, pH 7.4, individual constituents 10 μM. How it is done:
as §4, §5

Data set [12] addresses T4, CYP3A4 (Homo sapiens, UniProt P08684).
T4 construct: tissue Corning 452117; host or cells: pooled human liver microsomes (150 donors)
Also noted: method as in earlier work. As to conditions: range given jointly for quercetin and kaempferol on CYP1A2 and CYP3A4; Von Moltke et al.; read-out: IC50, inhibition of CYP3A4; cited from earlier work.

The structures appear in SMILES notation. pIC50: −log10 of the molar value.

The values below come from PMC6274835, “Inhibitory and Inductive Effects of Opuntia ficus indica Extract and Its Flavonoid Constituents on Cytochrome P450s and UDP-Glucuronosyltransferases” (International Journal of Molecular Sciences, 2018).

T4 sequence (P08684 whole entry): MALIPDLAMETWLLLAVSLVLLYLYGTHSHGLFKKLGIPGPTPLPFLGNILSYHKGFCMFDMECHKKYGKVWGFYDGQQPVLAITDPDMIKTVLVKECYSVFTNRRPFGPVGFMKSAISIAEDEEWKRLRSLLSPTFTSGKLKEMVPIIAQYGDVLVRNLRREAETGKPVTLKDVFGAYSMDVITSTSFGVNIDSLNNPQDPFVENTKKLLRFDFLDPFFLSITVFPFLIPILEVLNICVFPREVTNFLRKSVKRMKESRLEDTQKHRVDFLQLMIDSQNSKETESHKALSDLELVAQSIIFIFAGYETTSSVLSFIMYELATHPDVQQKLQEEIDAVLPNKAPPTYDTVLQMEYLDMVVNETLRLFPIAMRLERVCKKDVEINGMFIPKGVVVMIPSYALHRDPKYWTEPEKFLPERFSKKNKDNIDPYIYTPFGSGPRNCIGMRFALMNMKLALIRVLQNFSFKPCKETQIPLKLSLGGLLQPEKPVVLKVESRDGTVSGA

With `C[C@]12CC[C@@H]3c4ccc(O)cc4CC[C@H]3[C@@H]1CC[C@@H]2O` [E2, 17β-Estradiol], the “increase in mRNA expression of CYP2D1” value in [1] is listed as 2.6 fold. Also, the “increased expression of UGT2B1 mRNA” value in data set [2] is given as 3.8–6.5 folds. Also, the “increase in mRNA expression of CYP3A1” value in data set [3] is 12 fold. Moreover, the “PXR-mediated CYP3A4 reporter activity” value in [4] (E2, concentration not given) was “did not alter”. Further, in data set [5], the “change in activities of all UGT isoforms examined” value is “no changes”. Besides, in [6], the “increase in activity of CYP2B1” value is 2.7 fold. The “increase in CAR-mediated CYP2B6 reporter activity” value in [7] was 4.8 fold. Besides, the “increase in mRNA expression of CYP2B1” value in [8] stood at 7.7 fold.

Take `COc1cc(-c2oc3cc(O)cc(O)c3c(=O)c2O)ccc1O` [isorhamnetin]: the “inhibition of rat CYP2C11 activity” value in data set [9] (individual constituents 10 μM) is “did not result in a significant inhibition”. Moreover, the inhibition at 60 min, 10 μM in [10] is 40%.

On to `O=c1c(O)c(-c2ccc(O)cc2)oc2cc(O)cc(O)c12` [kaempferol], for which the figures for the inhibition at 60 min, 10 μM in data set [11] and in data set [9] were 20% and 10%, respectively. Further, in [12], the negative-log IC50 (pIC50) was 4.80 to 5.00.

In data set [11], `COc1cc(-c2oc3cc(O)cc(O)c3c(=O)c2O[C@@H]2O[C@H](CO[C@@H]3O[C@@H](C)[C@H](O)[C@@H](O)[C@H]3O)[C@@H](O)[C@H](O)[C@H]2O)ccc1O` [narcissin] had an inhibition at 60 min, 10 μM of 10%. Further, in data set [10], the “inhibition of human CYP1A2 activity” value is recorded as “did not significantly inhibit”. Moreover, the “induction in the PXR promoter activity” value in data set [4] is given as “significant induction”.

With `O=c1c(O)c(-c2ccc(O)c(O)c2)oc2cc(O)cc(O)c12` [quercetin], the inhibition at 60 min, 10 μM in [11] was determined as 10%; in data set [9], 18%; in data set [10] it was 31%.

Turning to `C[C@@H]1O[C@@H](OC[C@H]2O[C@@H](Oc3c(-c4ccc(O)c(O)c4)oc4cc(O)cc(O)c4c3=O)[C@H](O)[C@@H](O)[C@@H]2O)[C@H](O)[C@H](O)[C@H]1O` [rutin], the “induction in the PXR promoter activity” value in [4] was “significant induction”.
